Source: patent publication US6552080B1, “Fungicidal compounds having a fluorovinyl-or fluoropropenyl-oxyphenyloxime moiety and process for the preparation thereof” (Korea Research Institute of Chemical Technology, priority 1999, dated 2003)
Like-named read-outs stand apart in the source and are kept apart here.

Legend:
[1] = test system: Pyricularia oryzae Carvara KA301; type: in vivo; settings: for RCV (Fungicidal Activities, C.V.): Rice Blast
Botrytis cinerae = assay: Fungicidal activity against Cucumber Gray Mold Rot (CGM) disease; type: in vivo; settings: for Fungicidal Activities CGM (C.V.): 50 ppm; for CGM (Fungicidal Activities, C.V.): Cucumber Gray Mold Rot, concentration 50 ppm
Phytophthora infestans = type: in vivo; settings: for TLB (Fungicidal Activities, C.V.): Tomato Late Blight, concentration 50 ppm
Puccinia recondita = assay: Fungicidal activity against Wheat Leaf Rust (WLR) disease; type: in vivo; settings: for WLR (Fungicidal Activities, C.V.): Wheat Leaf Rust
Erysiphae graminis = assay: Fungicidal activity against Barley Powdery Mildew (BPM) disease; type: in vivo; settings: for BPM (Fungicidal Activities, C.V.): Barley Powdery Mildew
Rhizoctonia solani AG-1 = assay: Fungicidal activity against Rice Sheath Blight (RSB) disease; settings: for RSB (Fungicidal Activities, C.V.): Rice Sheath Blight

Q: CON=C(C(=O)OC)c1ccccc1CON=C(C)c1cccc(OC(F)=C(c2cccc(Cl)c2)C(F)(F)F)c1 [Compound 184] was tested. Which “Fungicidal Activities RCV (C.V.)” value ([1]; 2 ppm) did it give?
A: Its value is 90%.

Q: And the “Fungicidal Activities RCV (C.V.)” value ([1]; 50 ppm)?
A: Its value is 96%.

Q: And the “Fungicidal Activities CGM (C.V.)” value (Botrytis cinerae)?
A: Its value is 0%.

Q: What about the “Fungicidal Activities TLB (C.V.)” value (Phytophthora infestans; 2 ppm) of the same compound?
A: The value was 0%.

Q: What about the “Fungicidal Activities TLB (C.V.)” value (Phytophthora infestans; 50 ppm) of the same compound?
A: The value was 50%.

Q: What about the “Fungicidal Activities WLR (C.V.)” value (Puccinia recondita; 2 ppm) of the same compound?
A: The value was 98%.

Q: What about the “Fungicidal Activities WLR (C.V.)” value (Puccinia recondita; 50 ppm) of the same compound?
A: Its value is 99%.

Q: And the “Fungicidal Activities BPM (C.V.)” value (Erysiphae graminis; 2 ppm)?
A: Its value is 99%.

Q: What about the “Fungicidal Activities BPM (C.V.)” value (Erysiphae graminis; 50 ppm) of the same compound?
A: Its value is 100%.

Q: What about the “Fungicidal Activities RSB (C.V.)” value (Rhizoctonia solani AG-1; 2 ppm) of the same compound?
A: Its value is 20%.

Q: What about the “Fungicidal Activities RSB (C.V.)” value (Rhizoctonia solani AG-1; 50 ppm) of the same compound?
A: The value was 85%.

Q: Which results are given for COC=C(C(=O)OC)c1ccccc1CON=C(C)c1cccc(OC(F)=Cc2ccc(Cl)cc2)c1 [Compound 54]?
A: RCV (Fungicidal Activities, C.V.) ([1]; concentration 2 ppm): 97%; RCV (Fungicidal Activities, C.V.) ([1]; concentration 10 ppm): 99%; RCV (Fungicidal Activities, C.V.) ([1]; concentration 50 ppm): 100%; CGM (Fungicidal Activities, C.V.) (Botrytis cinerae): 51%; TLB (Fungicidal Activities, C.V.) (Phytophthora infestans): 84%; WLR (Fungicidal Activities, C.V.) (Puccinia recondita; concentration 2 ppm): 97%; WLR (Fungicidal Activities, C.V.) (Puccinia recondita; concentration 10 ppm): 100%; WLR (Fungicidal Activities, C.V.) (Puccinia recondita; concentration 50 ppm): 100%; BPM (Fungicidal Activities, C.V.) (Erysiphae graminis; concentration 2 ppm): 99%; BPM (Fungicidal Activities, C.V.) (Erysiphae graminis; concentration 10 ppm): 100%; BPM (Fungicidal Activities, C.V.) (Erysiphae graminis; concentration 50 ppm): 100%; RSB (Fungicidal Activities, C.V.) (Rhizoctonia solani AG-1; concentration 2 ppm): 50%; RSB (Fungicidal Activities, C.V.) (Rhizoctonia solani AG-1; concentration 10 ppm): 80%; RSB (Fungicidal Activities, C.V.) (Rhizoctonia solani AG-1; concentration 50 ppm): 90%

Q: How did the “Fungicidal Activities RCV (C.V.)” value ([1]; 2 ppm) turn out when CNC(=O)C(=NOC)c1ccccc1CON=C(C)c1cccc(OC(F)=C(c2ccc(C)c(C)c2)C(F)(F)F)c1 [Compound 193] was run?
A: The value was 93%.

Q: What about the “Fungicidal Activities RCV (C.V.)” value ([1]; 50 ppm) of the same compound?
A: Its value is 96%.

Q: What about the “Fungicidal Activities CGM (C.V.)” value (Botrytis cinerae) of the same compound?
A: The value was 75%.

Q: And the “Fungicidal Activities TLB (C.V.)” value (Phytophthora infestans; 2 ppm)?
A: Its value is 12%.

Q: And the “Fungicidal Activities TLB (C.V.)” value (Phytophthora infestans; 50 ppm)?
A: Its value is 40%.

Q: And the “Fungicidal Activities WLR (C.V.)” value (Puccinia recondita; 2 ppm)?
A: The value was 98%.

Q: And the “Fungicidal Activities WLR (C.V.)” value (Puccinia recondita; 50 ppm)?
A: The value was 100%.

Q: What about the “Fungicidal Activities BPM (C.V.)” value (Erysiphae graminis; 2 ppm) of the same compound?
A: Its value is 90%.

Q: And the “Fungicidal Activities BPM (C.V.)” value (Erysiphae graminis; 50 ppm)?
A: The value was 100%.

Q: And the “Fungicidal Activities RSB (C.V.)” value (Rhizoctonia solani AG-1; 2 ppm)?
A: The value was 30%.

Q: And the “Fungicidal Activities RSB (C.V.)” value (Rhizoctonia solani AG-1; 50 ppm)?
A: The value was 80%.

Q: Which results are given for CNC(=O)C(=NOC)c1ccccc1CON=C(C)c1cccc(OC(F)=C(c2ccc(C)cc2)C(F)(F)F)c1 [Compound 192]?
A: Fungicidal Activities RCV (C.V.) ([1]; 2 ppm): 100%; Fungicidal Activities RCV (C.V.) ([1]; 50 ppm): 100%; Fungicidal Activities CGM (C.V.) (Botrytis cinerae): 75%; Fungicidal Activities TLB (C.V.) (Phytophthora infestans; 2 ppm): 37%; Fungicidal Activities TLB (C.V.) (Phytophthora infestans; 50 ppm): 40%; Fungicidal Activities WLR (C.V.) (Puccinia recondita; 2 ppm): 98%; Fungicidal Activities WLR (C.V.) (Puccinia recondita; 50 ppm): 100%; Fungicidal Activities BPM (C.V.) (Erysiphae graminis; 2 ppm): 100%; Fungicidal Activities BPM (C.V.) (Erysiphae graminis; 50 ppm): 100%; Fungicidal Activities RSB (C.V.) (Rhizoctonia solani AG-1; 2 ppm): 40%; Fungicidal Activities RSB (C.V.) (Rhizoctonia solani AG-1; 50 ppm): 100%

Q: With CCc1ccc(C(=C(F)Oc2cccc(C(C)=NOCc3ccccc3C(=COC)C(=O)OC)c2)C(F)(F)F)cc1 [Compound 155] as the compound, how does the “RCV (Fungicidal Activities, C.V.)” value ([1]; concentration 50 ppm) read?
A: The value was 80%.

Q: And the “CGM (Fungicidal Activities, C.V.)” value (Botrytis cinerae)?
A: The value was 52%.

Q: What about the “TLB (Fungicidal Activities, C.V.)” value (Phytophthora infestans) of the same compound?
A: Its value is 6%.

Q: What about the “WLR (Fungicidal Activities, C.V.)” value (Puccinia recondita; concentration 2 ppm) of the same compound?
A: The value was 83%.

Q: What about the “WLR (Fungicidal Activities, C.V.)” value (Puccinia recondita; concentration 10 ppm) of the same compound?
A: The value was 99%.

Q: What about the “WLR (Fungicidal Activities, C.V.)” value (Puccinia recondita; concentration 50 ppm) of the same compound?
A: The value was 100%.

Q: And the “BPM (Fungicidal Activities, C.V.)” value (Erysiphae graminis; concentration 2 ppm)?
A: Its value is 95%.

Q: What about the “BPM (Fungicidal Activities, C.V.)” value (Erysiphae graminis; concentration 10 ppm) of the same compound?
A: The value was 99%.

Q: What about the “BPM (Fungicidal Activities, C.V.)” value (Erysiphae graminis; concentration 50 ppm) of the same compound?
A: The value was 100%.

Q: What about the “RSB (Fungicidal Activities, C.V.)” value (Rhizoctonia solani AG-1; concentration 50 ppm) of the same compound?
A: The value was 60%.

Q: With COC=C(C(=O)OC)c1ccccc1CON=C(c1cccc(OC(F)=Cc2ccc(C)cc2)c1)C(F)(F)F [Compound 85] as the compound, how does the “RCV (Fungicidal Activities, C.V.)” value ([1]; concentration 10 ppm) read?
A: The value was 16%.

Q: And the “RCV (Fungicidal Activities, C.V.)” value ([1]; concentration 50 ppm)?
A: The value was 93%.

Q: What about the “CGM (Fungicidal Activities, C.V.)” value (Botrytis cinerae) of the same compound?
A: Its value is 7%.

Q: What about the “TLB (Fungicidal Activities, C.V.)” value (Phytophthora infestans) of the same compound?
A: Its value is 0%.

Q: What about the “WLR (Fungicidal Activities, C.V.)” value (Puccinia recondita; concentration 10 ppm) of the same compound?
A: The value was 93%.

Q: What about the “WLR (Fungicidal Activities, C.V.)” value (Puccinia recondita; concentration 50 ppm) of the same compound?
A: Its value is 96%.

Q: What about the “BPM (Fungicidal Activities, C.V.)” value (Erysiphae graminis; concentration 10 ppm) of the same compound?
A: Its value is 92%.

Q: And the “BPM (Fungicidal Activities, C.V.)” value (Erysiphae graminis; concentration 50 ppm)?
A: The value was 99%.

Q: And the “RSB (Fungicidal Activities, C.V.)” value (Rhizoctonia solani AG-1; concentration 50 ppm)?
A: Its value is 40%.

Q: How did the “RCV (Fungicidal Activities, C.V.)” value ([1]; concentration 50 ppm) turn out when COC=C(C(=O)OC)c1ccccc1CON=Cc1cccc(OC(F)=C(c2ccc(Br)cc2)C(F)(F)F)c1 [Compound 118] was run?
A: Its value is 33%.

Q: And the “CGM (Fungicidal Activities, C.V.)” value (Botrytis cinerae)?
A: The value was 36%.

Q: And the “TLB (Fungicidal Activities, C.V.)” value (Phytophthora infestans)?
A: The value was 0%.

Q: And the “WLR (Fungicidal Activities, C.V.)” value (Puccinia recondita; concentration 2 ppm)?
A: Its value is 91%.

Q: What about the “WLR (Fungicidal Activities, C.V.)” value (Puccinia recondita; concentration 10 ppm) of the same compound?
A: The value was 98%.

Q: What about the “WLR (Fungicidal Activities, C.V.)” value (Puccinia recondita; concentration 50 ppm) of the same compound?
A: Its value is 100%.

Q: What about the “BPM (Fungicidal Activities, C.V.)” value (Erysiphae graminis; concentration 2 ppm) of the same compound?
A: Its value is 88%.

Q: And the “BPM (Fungicidal Activities, C.V.)” value (Erysiphae graminis; concentration 10 ppm)?
A: Its value is 96%.

Q: What about the “BPM (Fungicidal Activities, C.V.)” value (Erysiphae graminis; concentration 50 ppm) of the same compound?
A: Its value is 100%.

Q: And the “RSB (Fungicidal Activities, C.V.)” value (Rhizoctonia solani AG-1; concentration 50 ppm)?
A: The value was 30%.

Q: For CNC(=O)C(=NOC)c1ccccc1CON=C(C)c1cccc(OC(F)=C(c2cccc(C(F)(F)F)c2)C(F)(F)F)c1 [Compound 200], which “Fungicidal Activities RCV (C.V.)” value ([1]; 2 ppm) is on record?
A: The value was 95%.

Q: And the “Fungicidal Activities RCV (C.V.)” value ([1]; 50 ppm)?
A: Its value is 96%.

Q: What about the “Fungicidal Activities CGM (C.V.)” value (Botrytis cinerae) of the same compound?
A: Its value is 81%.

Q: What about the “Fungicidal Activities TLB (C.V.)” value (Phytophthora infestans; 2 ppm) of the same compound?
A: Its value is 12%.

Q: And the “Fungicidal Activities TLB (C.V.)” value (Phytophthora infestans; 50 ppm)?
A: The value was 50%.

Q: And the “Fungicidal Activities WLR (C.V.)” value (Puccinia recondita; 2 ppm)?
A: Its value is 93%.

Q: And the “Fungicidal Activities WLR (C.V.)” value (Puccinia recondita; 50 ppm)?
A: The value was 100%.

Q: And the “Fungicidal Activities BPM (C.V.)” value (Erysiphae graminis; 2 ppm)?
A: Its value is 99%.

Q: And the “Fungicidal Activities BPM (C.V.)” value (Erysiphae graminis; 50 ppm)?
A: The value was 100%.

Q: And the “Fungicidal Activities RSB (C.V.)” value (Rhizoctonia solani AG-1; 2 ppm)?
A: Its value is 15%.

Q: What about the “Fungicidal Activities RSB (C.V.)” value (Rhizoctonia solani AG-1; 50 ppm) of the same compound?
A: The value was 85%.

Q: Which results are given for CNC(=O)C(=NOC)c1ccccc1CON=Cc1cccc(OC(F)=C(c2cccc(OC)c2)C(F)(F)F)c1 [Compound 143]?
A: RCV (Fungicidal Activities, C.V.) ([1]; concentration 2 ppm): 83%; RCV (Fungicidal Activities, C.V.) ([1]; concentration 50 ppm): 100%; CGM (Fungicidal Activities, C.V.) (Botrytis cinerae): 0%; TLB (Fungicidal Activities, C.V.) (Phytophthora infestans): 0%; WLR (Fungicidal Activities, C.V.) (Puccinia recondita; concentration 2 ppm): 36%; WLR (Fungicidal Activities, C.V.) (Puccinia recondita; concentration 50 ppm): 90%; BPM (Fungicidal Activities, C.V.) (Erysiphae graminis; concentration 2 ppm): 0%; BPM (Fungicidal Activities, C.V.) (Erysiphae graminis; concentration 50 ppm): 93%; RSB (Fungicidal Activities, C.V.) (Rhizoctonia solani AG-1; concentration 50 ppm): 58%
